Tests used:
[1] = tested on: human glioblastoma (U87) grafted onto the chick embryo chorioallantoic membrane; test: In ovo tumor angiogenesis, glioblastoma grafted onto chick embryo chorioallantoic membrane (CAM); type: in vivo; conditions: 50 μM, 20 μL on tumor every 24 hours
Method: The effect of compound (1) on tumor angiogenesis was evaluated using the in ovo model based on human tumor grafted onto chick embryo chorioallantoic membrane (CAM).
This experimental approach makes it possible in only a few days to evaluate the tumor's progression and level of vascularization.
(§1) At the tenth day of embryonic development, glioblastoma cells (U87, 5×10^6 in 20 μL) were deposited on the chorioallantoic membrane. Two days after the graft, compound (1) at a concentration of 50 μM in a volume of 20 μL was deposited on the surface of the tumor formed. This treatment was repeated every 24 hours for 5 days. The control group was treated with solvent. The test was carried out on 20 eggs bearing glioblastoma tumors for each group. Images of the tumors were taken at day 3 (24 hours after treatment), at day 5 (3 days after treatment) and at day 7 (5 days after treatment) of tumor development. […] In order to determine the antiangiogenic mechanism of compound (1), VEGF was assayed by the ELISA method (Invitrogen, Novex technology), from the culture supernatant of U87 and HCT-116 cells, under normoxic and hypoxic conditions.

[2] = tested on: HCT-116 cells; test: VEGF secretion by ELISA, HCT-116 culture supernatant; type: cell-based; conditions: HCT-116, normoxic and hypoxic (2% O2) conditions, concentrations of 5 to 50, 24 hours
Method: as §1

[3] = tested on: chick embryo chorioallantoic membrane; test: In ovo physiological angiogenesis on chick embryo chorioallantoic membrane; type: in vivo; conditions: 20 μL of 50 μM solution on CAM, seventh day of embryonic development
Method: The effect of compound (1) on physiological angiogenesis was evaluated using the chick embryo chorioallantoic membrane (CAM) model which constitutes a richly vascularized tissue.
At the seventh day of embryonic development, 20 μL of the 50 μM solution of compound (1) was deposited on the chorioallantoic membrane whereas the control membranes were treated with solvent.

[4] = tested on: endothelial cells (HUVEC); test: Survival of endothelial cells in proliferative or quiescent phase; type: cell-based, human; conditions: 48 hours
Method: In order to understand the difference in the observed effects of compound (1) according to whether the vasculature is already formed or is growing “de novo”, vascular endothelial cells were cultured at two different cell densities so as to obtain proliferative phase cells or quiescent cells, then treated or not by compound (1), at 10 μM (IC50 value: 8 μM) for 48 hours. […] Compound (1) may thus be used to treat diseases associated with excessive and abnormal angiogenesis, like cancer or ARMD.

[5] = tested on: MDA-MB 231 cells; test: Cell growth test (CellTiter-Blue), MDA-MB 231; type: cell-based; conditions: Homo sapiens; MDA-MB 231, normoxia, 72 hours; read-out: IC50 (50% decrease in cell growth)
Method: (§2) The biological activity of compound (1), as well as that of its structural analogues, was studied in vitro on 7 different cancer cell lines: • HCT-116 (colorectal cancer) • U87 (glioblastoma) • K562 (myeloid leukemia) and K562 R • MDA-MB 231 (mammary adenocarcinoma) • MCF-7 (mammary adenocarcinoma) • A549 (pulmonary alveolar adenocarcinoma)
(§3) The cells selected for this study were incubated at 37° C. in the presence of compound (1) added in the culture medium at various concentrations and at various times. The set of experiments carried out made it possible to determine the degree of cytotoxicity of the compound tested (IC50), its capacity to induce cell death by apoptosis, in close dependence on extracellular superoxide anion for its activation.
(§4) The effect of compound (1) on the growth of HCT-116, U87, K562, K562R, MDA-MB 231, MCF-7 and A549 cells, cultured in normoxia, was evaluated using a cell growth test (CellTiter-Blue™ Cell Viability Assay, Promega).

[6] = tested on: K562 cells; test: Cell growth test (CellTiter-Blue), K562; type: cell-based; conditions: Homo sapiens; K562, normoxia, 72 hours; read-out: IC50 (50% decrease in cell growth)
Method: as §2, §3, §4

[7] = tested on: K562R cells; test: Cell growth test (CellTiter-Blue), K562R; type: cell-based; conditions: Homo sapiens, K-562R, normoxia, 72 hours, read-out: IC50 (50% decrease in cell growth)
Method: as §2, §3, §4

[8] = tested on: caspases 3 and 7 in HL60 cells; test: Caspase 3 and 7 activity (ApoONE test), HL60; type: cell-based; conditions: HL60, normoxia, 24 hours, 1 μM to 50 μM
Method: In order to specify whether compound (1) leads to apoptotic cell death, the activity of caspases 3 and 7, marker enzymes of apoptosis, was measured using the ApoONE test (Promega) in HCT-116, U87 and HL60 cells treated in normoxia for 24 hours with compound (1) at concentrations varying from 1 μM to 50 μM.

[9] = tested on: HCT-116 cells; test: Cellular superoxide anion signal, DHE probe, HPLC-fluorimetry; type: cell-based; conditions: HCT-116, 50 μM for 3 hours, DHE 10 μM 20 minutes, normoxia
Method: The effect of compound (1) on superoxide anion was studied following the treatment of HCT-116 cells with 50 μM compound (1) for 3 hours and followed by incubation with the probe dihydroethidium (DHE) (10 μM) for 20 minutes. After removing the culture medium and washing with ice-cold DPBS, the cells were collected in 1 ml of cold DPBS. After centrifugation at 1000 g for 5 minutes, the pellet was taken up in 150 μl of PBS with Triton X100 (0.1%), shaken and centrifuged at 1000 g for 5 minutes. The supernatant was mixed with a 0.2 M solution of HClO4 in methanol, shaken and placed on ice for 2 hours. After centrifugation at 20000 g for 30 minutes, the supernatant is analyzed by HPLC coupled with fluorescence (λex=510 nm, λcm=595 nm). In the untreated cells (continuous line), the first peak at tR=5.16 minutes corresponds to the oxidized form “E+”, product of oxidation by peroxidases, and the second peak at tR =5.71 minutes to the oxidized form 2-OH E+, specific to the interaction with superoxide anion. In the treated cells, the first peak at tR=5.29 minutes corresponding to the oxidized form “E+” is increased, whereas the second peak at tR=5.71 minutes, corresponding to the oxidized form 2OH E+, specific to the interaction with superoxide anion, was suppressed. […] (FIG. 10).

[10] = tested on: HCT-116 cells; test: Condensed chromatin (Hoechst 33258) after SOD pretreatment; type: cell-based; conditions: HCT-116, SOD1 50 U/ml pretreatment, normoxia
Method: In order to determine the role of superoxide anion, produced by the cells, in the activation of compound (1), HCT-116 cells were pretreated for 1 hour with the enzyme superoxide dismutase (SOD1) at 50 U/ml, then treated with compound (1). The cells were analyzed to evaluate, firstly, cell survival in normoxia (72 hours of treatment) and in hypoxia (48 hours of treatment). Secondly, the formation of condensed chromatin in normoxia and the activity of caspases 3 and 7 in normoxia were evaluated.

OCCCn1cc(-c2ccccc2)c(-c2ccc(O)c(O)c2)c1 [compound (1)]
tumor vascularization ([1]; after 3 treatments (day 5), also day 7, vs control group): inhibition of tumor vascularization
growth of the treated tumor ([1]; day 7): significant inhibition of the growth of the treated tumor
VEGF secretion [2]: does not modify VEGF secretion
effect on physiological angiogenesis [3]: absence of the effect
effect on quiescent endothelial cells ([4]; 10 μM, quiescent cells): acts only on endothelial cells in the proliferative phase
inhibition at 10 µM ([4]; Homo sapiens, HUVEC, 10 μM, proliferative phase): 78%
IC50 ([4]; Homo sapiens, HUVEC, read-out: IC50 value, vascular endothelial cells): 8 µM
IC50 [5]: 20 µM
IC50 [6]: 232 µM
IC50 [7]: 12.5 µM
activity of caspases 3 and 7 [8]: strongest activation
2-OH E+ signal (DHE oxidized by superoxide anion) [9]: inhibition of the 2OH E+ signal
E+ signal (DHE oxidized by peroxidases or catalase) [9]: increase in the E+ signal
increase in condensed chromatin after SOD pretreatment [10]: completely suppresses the increase in condensed chromatin

From US10233151B2, “Use of a novel 3-aryl-4-catechol-pyrrole-N-propanol compound and the derivatives thereof to treat cancer and diseases related to excessive angiogenesis” (Centre National de la Recherche Scientifique (CNRS), priority 2014, dated 2019)
